Experimental data taken from the NIST ThermoML archive (doi:10.1016/j.jct.2016.10.007).

Assays:
[1] = Wilhemy plate method
[2] = wn = mass fraction of the nth substance listed; conditions: Wilhemy plate method

CCN(CC)CCO [(diethylamino)ethanol]
[1]
Conditions	surface tension liquid-gas [mN/m]
283.2 K	29.7
293.2 K	28.6
303.2 K	27.7
313.2 K	26.4
323.2 K	25.2

CCN(CC)CCO [(diethylamino)ethanol] + O
surface tension liquid-gas [mN/m], [2]
Conditions	303.2 K	313.2 K	323.2 K
w1 = 0.1	41.2	39.2	37.3
w1 = 0.137	40.1	–	–
w1 = 0.2	36.5	34.7	33.1
w1 = 0.213	36.3	–	–
w1 = 0.3	34.9	33.2	31.7
w1 = 0.4	33.6	32.1	30.7
w1 = 0.483	32.9	–	–
w1 = 0.5	32.7	31.2	29.9
w1 = 0.58	31.8	–	–
w1 = 0.6	31.3	29.8	28.3
w1 = 0.685	30.7	–	–
w1 = 0.7	30.3	28.7	27.3
w1 = 0.8	29.6	28	26.6
w1 = 0.814	29.5	–	–
w1 = 0.9	28.7	27.3	26
w1 = 0.91	28.6	–	–
w1 = 1	27.7	26.4	25.2

O [water]
Conditions	surface tension liquid-gas [mN/m]
[1], 298.2 K	71.9
